The subject of one series is RSV strain A2. The series can be described thus: RSV Cellomics assay for RSV A2 antiviral activity (EC50-RSV-Hep2-96-Cellomics), Example Z. Format: cell-based. To be noted: human respiratory syncytial virus, HEp-2, 72 h; Hep2 cells infected with RSV strain A2, MOI=0.05, 3 days, RSV F protein immunofluorescence. The procedure:
Example Z: RSV Cellomics Assay for RSV A2 Antiviral Activity (EC50-RSV-Hep2-96-Cellomics) 8×10^3 Hep2 cells are seeded into 96 well plates in 100 μL of media (DMEM supplemented with GlutaMAX, 10% FBS and Pen/Strep) and briefly spun at 50×g for 1 minute to attach cells. Cells were further allowed to attach with overnight incubation at 37° C.+5% CO2. The following day, the media was aspirated and 100 μL of fresh DMEM media containing 2% FBS was added. A three-fold dilution series of compounds of interest are then added to the plate using the Tecan D300e dispenser and the plate is normalized to the well with the highest volume of DMSO. The cells are next infected by adding 100 μL of media containing RSV strain A2 at an MOI=0.05 and the plates incubated for 3 days at 37° C.+5% CO2. Following the incubation, the media is removed, and the cells are washed once with 250 μL PBS and fixed with 250 μL ice-cold 100% methanol for 10 minutes at 4 C. The methanol is then removed and the plates air dried for 5 minutes and then washed once with 250 μL PBS to remove any residual methanol. The wells are then blocked 60 μL/well of BlockAid (B10710, Thermo-Fisher) for 1 hour at RT on rocker at which point the blocking buffer is carefully aspirated. Primary antibody against the RSV F protein (MAB 858-1) is then diluted 1:2000 in SuperBlock (37515, Thermo Fisher) and 50 μL of the primary antibody solution is added to each well. The plates are incubated at room temperature for 1 hour with gentle agitation and then washed with 250 μL of PBS-Tween 3 times. A goat anti-mouse AlexaFluor 647 conjugated secondary antibody (Sigma, A21235) is then diluted 1:2000 and Hoescht 33342 (H3570) at 1:1000 in SuperBlock and 50 μL added to the wells for 1 hour at 37° C. After incubation the antibody solution is aspirated, and the wells are then washed with 250 μL of PBS-Tween 3 times. To keep cells from drying out, 100 μL of PBS is added to each well and the plates are sealed with black plate seal. Fluorescence at the 647 nm wavelength is measured using a Cellomics CellInsight CX7 machine. Compound activity is determined as a percentage of the % positive cells (or average intensity) compared to DMSO treated RSV infected well controls following subtraction of uninfected controls. The EC50 values are then calculated using nonlinear regression analysis in GraphPad Prism.

Series [1] is described as follows: MT4 CC50 cytotoxicity in uninfected cells (CC50-MT4-384), Example G. The class given is cell-based. To be noted: human; uninfected MT-4 cells, 4-5 days, Cell-Titer Glo. As to the method:
Example G. HEp-2 and MT4 CC50 Cytotoxicity of the compounds was determined in uninfected cells using the cell viability reagent in a similar fashion as described before for other cell types ([…] et al., ANTIMICROB AGENTS CHEMOTHER. 2008, 52(2):655-65). HEp-2 (1.5×10^3 cells/well) and MT-4 (2×10^3 cells/well) cells were plated in 384-well plates and incubated with the appropriate medium containing 3-fold serially diluted compound ranging from 15 nM to 100,000 nM. Cells were cultured for 4-5 days at 37° C. Following the incubation, the cells were allowed to equilibrate to 25° C., and cell viability was determined by adding Cell-Titer Glo viability reagent. The mixture was incubated for 10 min, and the luminescence signal was quantified using an Envision plate reader. Untreated cell and cells treated at 2 μM puromycin (Sigma, St. Louis, MO) serve as 100% and 0% cell viability control, respectively. The percent of cell viability was calculated for each tested compound concentration relative to the 0% and 100% controls and the CC50 value was determined by non-linear regression as a compound concentration reducing the cell viability by 50%.

Molecules are shown by their SMILES.

On to `CC(=O)O[C@H]1[C@H](c2ccc3c(N)ncnn23)O[C@](C#N)(COC(=O)OCC(C)C)[C@H]1OC(C)=O` [Compound 1, (2R,3S,4S,5S)-5-(4-aminopyrrolo[2,1-f][1,2,4]triazin-7-yl)-2-cyano-2-(((isobutoxycarbonyl)oxy)methyl)tetrahydrofuran-3,4-diyl diacetate], for which, in the series on RSV strain A2, it took 45900 nM to reach a half-maximal effect (EC50). In addition, the CC50 – broadly, the concentration that lowers cell viability or growth by half – in series [1] is over 50000 nM.

In series [1], `CC(=O)O[C@H]1[C@H](c2ccc3c(N)ncnn23)O[C@](C#N)(COC(=O)OC(C)OC(=O)[C@H](C(C)C)N(C)C)[C@H]1OC(C)=O` (stereo partly drawn) [Compound 7, (2R,3S,4S,5S)-5-(4-aminopyrrolo[2,1-f][1,2,4]triazin-7-yl)-2-cyano-2-((8S)-8-isopropyl-5,9-dimethyl-3,7-dioxo-2,4,6-trioxa-9-azadecyl)tetrahydrofuran-3,4-diyl diacetate] displayed a CC50 of over 50000 nM.

For the molecule `COC(=O)OC[C@@]1(C#N)O[C@@H](c2ccc3c(N)ncnn23)[C@H](OC(C)=O)[C@@H]1OC(C)=O` [Compound 4, (2R,3S,4S,5S)-5-(4-aminopyrrolo[2,1-f][1,2,4]triazin-7-yl)-2-cyano-2-(((methoxycarbonyl)oxy)methyl)tetrahydrofuran-3,4-diyl diacetate], it took 54000 nM to reach a half-maximal effect in the series with RSV strain A2 (EC50). The molecule also had a CC50 in series [1] of over 50000 nM.

`CCOC(=O)OC[C@@]1(C#N)O[C@@H](c2ccc3c(N)ncnn23)[C@H](OC(C)=O)[C@@H]1OC(C)=O` [Compound 5, (2R,3S,4S,5S)-5-(4-aminopyrrolo[2,1-f][1,2,4]triazin-7-yl)-2-cyano-2-(((ethoxycarbonyl)oxy)methyl)tetrahydrofuran-3,4-diyl diacetate]: a half-maximal response in the series with RSV strain A2 (EC50) required 61500 nM. The molecule also registered a CC50 in series [1] of over 50000 nM.

Turning to `CCC(=O)O[C@H]1[C@H](c2ccc3c(N)ncnn23)O[C@](C#N)(COC(=O)OCC(C)C)[C@H]1OC(=O)CC` [Compound 2, (2R,3S,4S,5S)-5-(4-aminopyrrolo[2,1-f][1,2,4]triazin-7-yl)-2-cyano-2-(((isobutoxycarbonyl)oxy)methyl)tetrahydrofuran-3,4-diyl dipropionate], it took 49200 nM to reach a half-maximal effect in the series with RSV strain A2 (EC50). The same molecule returned a CC50 in series [1] of over 50000 nM.

As to `CC(=O)O[C@H]1[C@H](c2ccc3c(N)ncnn23)O[C@](C#N)(COC(=O)OC(C)C)[C@H]1OC(C)=O` [Compound 3, (2R,3S,4S,5S)-5-(4-aminopyrrolo[2,1-f][1,2,4]triazin-7-yl)-2-cyano-2-(((isopropoxycarbonyl)oxy)methyl)tetrahydrofuran-3,4-diyl diacetate], a half-maximal response in the series on RSV strain A2 (EC50) required 100000 nM. The CC50 in series [1] is over 50000 nM.

Consider `CCOC(=O)OC[C@@]1(C#N)O[C@@H](c2ccc3c(N)ncnn23)[C@H](OC(=O)OCC)[C@@H]1OC(=O)OCC` [Compound 6, (2R,3S,4S,5S)-5-(4-aminopyrrolo[2,1-f][1,2,4]triazin-7-yl)-2-cyano-2-(((ethoxycarbonyl)oxy)methyl)tetrahydrofuran-3,4-diyl diethyl bis(carbonate)], for which, in the series on RSV strain A2, the 50% effective concentration (EC50) (in general, the midpoint of the concentration-response curve) is 68600 nM. In series [1], this molecule showed a CC50 of over 50000 nM.

On to `N#C[C@]1(CO)O[C@@H](c2ccc3c(N)ncnn23)[C@H](O)[C@@H]1O` [Compound 0, (2R,3S,4R,5S)-5-(4-aminopyrrolo[1,2-f][1,2,4]triazin-7-yl)-3,4-dihydroxy-2-(hydroxymethyl)tetrahydrofuran-2-carbonitrile, reference compound], for which the EC50 in the series on RSV strain A2 stood at 9740 nM. In addition, the half-maximal cytotoxic concentration (CC50) in series [1] was over 50000 nM.

(Values after patent publication US20250084088A1, “ANTIVIRAL COMPOUNDS AND METHODS OF MAKING AND USING THE SAME” (Gilead Sciences, Inc., priority 2023, published 2025).)
